Data from the supplement of paper PMC12463676, “Small-molecule dissolution of stress granules by redox modulation benefits ALS models” (Nature Chemical Biology, 2025).

Columns and labels:
[1] = compound: NC(=O)CCCCC1CCSS1 [lipoamide]; experiment: thermal stability z-score vs DMSO; higher = more thermally stabilized by treatment; conditions: HeLa, lipoamide concentration 100 µM
Description: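 Cellular thermal proteome profiling in HeLa cells. Cells were treated with 100 µM lipoamide for 1 h, with or without 1 mM arsenate for a further 1 h, then heated to ten temperatures (37-66.3 °C), and soluble protein was quantified by TMT mass spectrometry relative to 0.1% DMSO controls. The thermal stability score (sum of log2 fold changes minus the abundance score) was transformed to a z-score; mean of n = 3 experiments.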

[2] = compound: O=[As]([O-])(O)O.[K+] [potassium arsenate]; experiment: as above; conditions: HeLa; arsenate concentration 1 mM
Description: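 Cellular thermal proteome profiling in HeLa cells treated with 1 mM arsenate for 1 h (DMSO pretreatment), heated to ten temperatures (37-66.3 °C). Soluble protein was quantified by TMT mass spectrometry relative to DMSO controls; the thermal stability score was transformed to a z-score; mean of n = 3 experiments.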

[3] = arsenate co-treatment: 1 mM arsenate 1 h
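Also: each temperature applied for 3 min, abundance score taken as mean log2 fold change at the two lowest temperatures, z-score obtained by mean subtraction and division by SD.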

UniProt Q9H0U4, sequence (Q9H0U4 whole entry): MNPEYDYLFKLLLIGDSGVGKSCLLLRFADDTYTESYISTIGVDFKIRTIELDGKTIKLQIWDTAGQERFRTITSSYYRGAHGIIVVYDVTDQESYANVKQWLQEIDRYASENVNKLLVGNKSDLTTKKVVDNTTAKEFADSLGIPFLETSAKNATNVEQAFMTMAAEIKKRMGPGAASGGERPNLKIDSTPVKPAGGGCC
UniProt Q15042, sequence (Q15042 whole entry): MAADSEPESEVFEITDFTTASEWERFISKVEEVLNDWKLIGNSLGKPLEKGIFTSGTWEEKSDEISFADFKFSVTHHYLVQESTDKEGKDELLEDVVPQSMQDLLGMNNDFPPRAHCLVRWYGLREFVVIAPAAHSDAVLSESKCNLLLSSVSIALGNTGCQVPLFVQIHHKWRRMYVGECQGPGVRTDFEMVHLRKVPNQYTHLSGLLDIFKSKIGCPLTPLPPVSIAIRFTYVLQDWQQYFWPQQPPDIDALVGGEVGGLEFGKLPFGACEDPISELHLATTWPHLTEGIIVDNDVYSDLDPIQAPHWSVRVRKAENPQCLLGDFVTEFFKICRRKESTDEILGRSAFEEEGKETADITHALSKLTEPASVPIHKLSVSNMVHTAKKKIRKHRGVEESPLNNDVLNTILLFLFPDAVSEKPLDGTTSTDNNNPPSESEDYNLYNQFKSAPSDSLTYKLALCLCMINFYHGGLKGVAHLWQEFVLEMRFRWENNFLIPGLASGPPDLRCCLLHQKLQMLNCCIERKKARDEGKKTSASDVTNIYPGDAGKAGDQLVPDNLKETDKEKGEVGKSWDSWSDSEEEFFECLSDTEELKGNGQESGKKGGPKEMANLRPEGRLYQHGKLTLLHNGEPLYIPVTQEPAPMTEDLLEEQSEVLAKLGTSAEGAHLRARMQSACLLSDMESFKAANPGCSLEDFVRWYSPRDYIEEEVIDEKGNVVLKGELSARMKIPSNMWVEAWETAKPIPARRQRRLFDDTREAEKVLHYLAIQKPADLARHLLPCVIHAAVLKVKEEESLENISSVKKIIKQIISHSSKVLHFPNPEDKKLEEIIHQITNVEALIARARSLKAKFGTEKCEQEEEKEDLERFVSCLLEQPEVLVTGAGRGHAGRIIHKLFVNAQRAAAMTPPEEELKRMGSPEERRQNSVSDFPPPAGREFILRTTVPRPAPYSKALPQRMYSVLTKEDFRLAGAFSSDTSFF
UniProt Q2KHR3, sequence (Q2KHR3 whole entry): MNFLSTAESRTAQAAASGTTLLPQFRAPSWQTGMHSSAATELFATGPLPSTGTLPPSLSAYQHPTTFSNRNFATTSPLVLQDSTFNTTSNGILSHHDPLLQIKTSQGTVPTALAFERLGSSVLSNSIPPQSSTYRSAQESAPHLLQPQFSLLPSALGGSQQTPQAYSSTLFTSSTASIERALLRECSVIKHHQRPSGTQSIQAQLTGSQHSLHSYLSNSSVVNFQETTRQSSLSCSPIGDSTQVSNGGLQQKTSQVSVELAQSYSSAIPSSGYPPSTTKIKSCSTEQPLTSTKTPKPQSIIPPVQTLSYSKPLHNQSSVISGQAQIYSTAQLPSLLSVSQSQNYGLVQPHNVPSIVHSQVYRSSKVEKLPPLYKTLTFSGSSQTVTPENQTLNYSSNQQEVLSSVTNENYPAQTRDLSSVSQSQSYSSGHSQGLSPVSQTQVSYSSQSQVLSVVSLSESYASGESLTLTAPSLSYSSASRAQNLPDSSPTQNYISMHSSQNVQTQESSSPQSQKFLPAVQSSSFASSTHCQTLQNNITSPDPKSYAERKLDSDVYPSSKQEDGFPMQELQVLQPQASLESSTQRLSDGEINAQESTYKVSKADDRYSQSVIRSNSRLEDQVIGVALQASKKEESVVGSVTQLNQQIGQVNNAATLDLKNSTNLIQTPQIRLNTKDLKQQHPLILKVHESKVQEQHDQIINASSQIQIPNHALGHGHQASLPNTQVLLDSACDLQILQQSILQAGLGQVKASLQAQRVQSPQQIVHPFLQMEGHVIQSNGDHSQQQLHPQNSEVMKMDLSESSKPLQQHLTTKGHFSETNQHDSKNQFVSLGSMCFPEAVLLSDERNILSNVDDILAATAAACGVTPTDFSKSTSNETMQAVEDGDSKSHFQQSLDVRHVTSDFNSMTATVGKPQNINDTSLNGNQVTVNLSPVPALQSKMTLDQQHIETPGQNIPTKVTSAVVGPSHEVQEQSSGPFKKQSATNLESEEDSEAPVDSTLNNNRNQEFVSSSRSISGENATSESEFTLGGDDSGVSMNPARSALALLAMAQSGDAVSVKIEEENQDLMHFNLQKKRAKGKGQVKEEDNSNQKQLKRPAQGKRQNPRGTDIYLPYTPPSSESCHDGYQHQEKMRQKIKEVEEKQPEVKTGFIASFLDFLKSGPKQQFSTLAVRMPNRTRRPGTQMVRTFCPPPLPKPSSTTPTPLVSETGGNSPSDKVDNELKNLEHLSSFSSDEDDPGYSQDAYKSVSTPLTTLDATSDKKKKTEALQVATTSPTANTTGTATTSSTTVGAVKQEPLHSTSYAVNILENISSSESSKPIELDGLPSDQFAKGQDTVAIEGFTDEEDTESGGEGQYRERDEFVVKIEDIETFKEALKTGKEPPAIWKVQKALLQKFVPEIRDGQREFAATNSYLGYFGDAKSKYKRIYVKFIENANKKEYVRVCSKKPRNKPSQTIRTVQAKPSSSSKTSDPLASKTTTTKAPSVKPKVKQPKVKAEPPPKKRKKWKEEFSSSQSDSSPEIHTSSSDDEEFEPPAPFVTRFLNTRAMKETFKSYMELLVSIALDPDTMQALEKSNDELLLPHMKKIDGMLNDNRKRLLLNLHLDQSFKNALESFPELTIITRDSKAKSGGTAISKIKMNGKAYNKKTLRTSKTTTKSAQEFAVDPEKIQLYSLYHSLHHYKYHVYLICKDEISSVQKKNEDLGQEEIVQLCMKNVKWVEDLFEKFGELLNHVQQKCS
UniProt Q7Z5L2, sequence (Q7Z5L2 whole entry): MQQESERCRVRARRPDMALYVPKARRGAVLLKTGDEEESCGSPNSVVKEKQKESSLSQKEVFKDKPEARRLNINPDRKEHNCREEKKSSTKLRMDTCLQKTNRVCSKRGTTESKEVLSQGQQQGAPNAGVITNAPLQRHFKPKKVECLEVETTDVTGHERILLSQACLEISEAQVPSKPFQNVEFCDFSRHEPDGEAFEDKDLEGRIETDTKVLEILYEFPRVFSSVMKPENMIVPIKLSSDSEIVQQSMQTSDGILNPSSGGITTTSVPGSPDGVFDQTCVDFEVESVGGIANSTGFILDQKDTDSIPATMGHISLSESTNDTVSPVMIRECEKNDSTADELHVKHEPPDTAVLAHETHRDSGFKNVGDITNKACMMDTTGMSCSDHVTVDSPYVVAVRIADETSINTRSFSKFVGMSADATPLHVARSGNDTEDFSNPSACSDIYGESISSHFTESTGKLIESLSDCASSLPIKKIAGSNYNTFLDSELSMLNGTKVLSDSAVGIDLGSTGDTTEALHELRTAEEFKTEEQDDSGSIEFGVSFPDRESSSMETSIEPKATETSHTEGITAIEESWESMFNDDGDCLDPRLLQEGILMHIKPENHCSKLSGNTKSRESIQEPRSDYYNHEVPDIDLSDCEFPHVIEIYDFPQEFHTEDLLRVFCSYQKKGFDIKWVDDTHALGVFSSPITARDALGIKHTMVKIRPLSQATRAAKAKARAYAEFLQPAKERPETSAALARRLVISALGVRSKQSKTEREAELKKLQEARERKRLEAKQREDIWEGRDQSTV
UniProt Q15269, sequence (Q15269 whole entry): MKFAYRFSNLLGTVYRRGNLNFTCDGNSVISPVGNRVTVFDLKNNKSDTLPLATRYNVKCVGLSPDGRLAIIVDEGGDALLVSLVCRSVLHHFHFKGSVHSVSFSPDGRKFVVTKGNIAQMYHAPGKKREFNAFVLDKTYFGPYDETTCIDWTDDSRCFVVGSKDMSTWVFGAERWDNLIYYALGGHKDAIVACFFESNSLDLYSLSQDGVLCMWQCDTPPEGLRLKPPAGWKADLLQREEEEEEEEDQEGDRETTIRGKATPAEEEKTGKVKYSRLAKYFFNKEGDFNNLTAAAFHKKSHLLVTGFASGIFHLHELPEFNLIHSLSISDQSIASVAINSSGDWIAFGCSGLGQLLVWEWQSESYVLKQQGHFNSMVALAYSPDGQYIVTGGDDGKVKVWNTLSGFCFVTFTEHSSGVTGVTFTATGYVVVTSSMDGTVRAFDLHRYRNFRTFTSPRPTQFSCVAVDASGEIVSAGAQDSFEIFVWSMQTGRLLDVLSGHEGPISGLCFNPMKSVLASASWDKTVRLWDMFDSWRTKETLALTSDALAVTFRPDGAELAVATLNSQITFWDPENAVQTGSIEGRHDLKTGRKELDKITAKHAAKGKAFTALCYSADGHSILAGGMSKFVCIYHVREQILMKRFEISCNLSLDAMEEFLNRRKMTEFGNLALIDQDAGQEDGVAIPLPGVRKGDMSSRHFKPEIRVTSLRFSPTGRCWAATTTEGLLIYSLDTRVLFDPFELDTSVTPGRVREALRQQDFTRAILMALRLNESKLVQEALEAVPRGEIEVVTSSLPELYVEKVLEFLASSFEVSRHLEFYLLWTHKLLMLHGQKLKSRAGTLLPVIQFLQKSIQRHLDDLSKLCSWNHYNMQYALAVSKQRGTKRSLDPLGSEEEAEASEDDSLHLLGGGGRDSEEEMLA
UniProt P62820, sequence (P62820 whole entry): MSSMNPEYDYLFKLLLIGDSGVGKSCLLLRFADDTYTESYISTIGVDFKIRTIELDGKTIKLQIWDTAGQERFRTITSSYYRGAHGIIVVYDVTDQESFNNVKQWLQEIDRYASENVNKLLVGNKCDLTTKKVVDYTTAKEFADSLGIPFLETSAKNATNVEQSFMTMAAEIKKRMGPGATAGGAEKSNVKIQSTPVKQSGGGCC
UniProt P09417, sequence (P09417 whole entry): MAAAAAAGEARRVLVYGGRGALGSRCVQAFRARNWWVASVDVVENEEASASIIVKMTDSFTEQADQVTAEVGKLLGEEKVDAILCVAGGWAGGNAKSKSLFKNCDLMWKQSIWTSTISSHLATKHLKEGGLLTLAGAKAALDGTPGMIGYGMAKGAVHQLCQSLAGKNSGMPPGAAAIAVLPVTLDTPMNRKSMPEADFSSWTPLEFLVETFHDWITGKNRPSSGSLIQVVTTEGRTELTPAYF

Target	thermal stability z-score [1, 3]	thermal stability z-score ([1]; arsenate co-treatment: none)	thermal stability z-score [2]
PWP1 (UniProt Q13610)	-0.0751	-0.259	-2.52
PWP2 (UniProt Q15269)	-0.256	0.154	0.864
PXDN (UniProt Q92626)	-1.65	-1.61	0.0514
PXN (UniProt P49023)	-0.261	-0.432	-2
PYCR1 (UniProt P32322)	-0.0172	-0.299	-0.368
PYCR2 (UniProt Q96C36)	0.43	-0.4	-0.765
PYCRL (UniProt Q53H96)	0.827	0.862	0.43
PYGB (UniProt P11216)	0.243	0.0472	-1.24
PYGL (UniProt P06737)	0.968	0.345	-0.513
PYM1 (UniProt Q9BRP8)	0.618	-0.287	-0.578
PYROXD1 (UniProt Q8WU10)	0.569	0.443	-1.15
QARS	-0.515	-0.706	-0.289
QDPR (UniProt P09417)	0.36	0.387	-1.26
QKI (UniProt Q96PU8)	-0.625	0.069	0.0813
QPCTL (UniProt Q9NXS2)	-0.434	-0.457	-0.256
QRICH1 (UniProt Q2TAL8)	-0.132	-0.0369	0.0998

Target	thermal stability z-score [1, 3]	thermal stability z-score ([1]; arsenate co-treatment: none)	thermal stability z-score [2]
QRSL1 (UniProt Q9H0R6)	-0.401	-2.57	0.708
QSER1 (UniProt Q2KHR3)	-0.147	-0.0194	0.0737
QSOX2 (UniProt Q6ZRP7)	0.352	1.15	0.165
QTRT1 (UniProt Q9BXR0)	0.739	-1.03	-0.729
QTRTD1 (UniProt Q9H974)	0.678	-0.447	-0.765
R3HCC1 (UniProt Q9Y3T6)	0.183	0.233	-0.101
R3HCC1L (UniProt Q7Z5L2)	0.00414	0.282	0.0177
R3HDM1 (UniProt Q15032)	0.0761	0.111	0.0316
RAB1A (UniProt P62820)	0.28	0.338	0.312
RAB1B (UniProt Q9H0U4)	0.238	0.549	0.196
RAB2A (UniProt P61019)	0.405	0.206	0.296
RAB3D (UniProt O95716)	0.635	1.07	0.692
RAB3GAP1 (UniProt Q15042)	-0.562	-0.113	0.764
RAB3GAP2 (UniProt Q9H2M9)	-0.717	-0.266	0.64
RAB3IL1 (UniProt Q8TBN0)	-0.235	0.559	-0.89
